Experimental data taken from US20260076986A1 (priority 2022, published 2026).

Legend:
[1] = system: glutathione reductase and superoxide desmutases; details: periods of days to weeks; cited from earlier work
transgenic AD mice = details: cited from earlier work
[2] = capsules or different food sources; cited from earlier work
animals = details: 20-40 mg/kg/day over 3 to 4 months; cited from earlier work
[3] = cited from earlier work
amyloid beta = biological target: T1, amyloid beta (Homo sapiens, UniProt P05067); assay: in vitro formation and breakdown of amyloid beta oligomers, aggregates and fibrils; format: biochemical; details: approximately
T1 construct: cleaved by alpha and beta secretases, producing free amyloid beta peptide
T1 sequence (P05067 672-713 limits assumed): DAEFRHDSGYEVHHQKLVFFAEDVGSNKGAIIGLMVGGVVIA
Description: Scyllo-inositol is a natural sugar found in many nutrients, including coconut, carrots, grapes and citrus fruits.
Thus, our target concentration in the CSF (which we assume to be similar to the interstitial fluid in the brain) is approximately 2-5 ugm/ml.

[4] = nine phase 1 studies; cited from earlier work
[5] = scyllo-inositol levels in CSF of AD patients; format: in vivo, human; details: 250 mg BID
[6] = system: mild and moderate AD patients; assay: phase 2 study of scyllo-inositol 250 mg BID in mild and moderate AD patients over 78 weeks; format: in vivo, human
Description: The inclusion of mild AD patients with an MMSE score of 20 and 21 was sufficient to mask the efficacy observed in mild AD patients with an MMSE from 22-26.
Scyllo-inositol is a drug that, in oral form, crosses the blood-brain barrier to achieve low mM levels in the blood. […] See McLaurin, J. et. al., J Mol. Biol. (1998): 183-194. […] The population of AD patients in the study was mild to moderate Alzheimer's disease having MMSE of 16-26. […] See Salloway, et al. Neurology 2011; 77:1253-1262.
A randomized, double blind placebo-controlled study phase 2 study explored the safety and efficacy of 250 mg BID administered to mild and moderate AD patients over 78 weeks. One of the primary endpoints used to measure changes in cognition was the Neuropsychological Test Battery (NTB) as well as measuring the levels of biomarkers in the CSF such as Amyloid beta 42 and phosphorylated Tau. The primary analysis compared 250 mg BID […] and placebo (n=82) in mild to moderate patients, and an additional pre-specified analysis was performed in the placebo and treated mild AD patients. […] Similar trends were also observed in other cognition and function tests such CSR-SoB and ADCS-ADL.

[7] = system: mild and moderate AD patients; details: cited from earlier work
neurons = details: cited from earlier work
hippocampal slices = details: infusion in rat brain, toxic amyloid beta oligomers; cited from earlier work
rats = details: rat, in vivo, 6 months
[8] = system: Alzheimer transgenic mouse model; details: cited from earlier work
[9] = clinical safety review of scyllo-inositol (ELND005) studies; format: in vivo, human; details: clinical studies of up to 2.5 years
Protocol: In the completed studies, […] have been exposed to at least a single dose of ELND005 (161 unique healthy subjects in Phase 1 studies, 306 unique patients in Phase 2 studies). The 306 Mild and Moderate AD patients were treated with ELND005 doses of up to 2000 mg BID. In the completed Phase 2 studies, the duration of treatment was up to 2.5 years with the 250-mg BID dose. The Phase 2 AD studies provided a total of 370.2 patient-years of exposure at any dose. At the dose of 250 mg BID, there have been a total of 154.8 patient-years of exposure in AD patients.
Of the 161 healthy subjects who received ELND005 in Phase 1 studies, 87 were between the ages of 18 and 54 years (inclusive) and 74 were between ages of 55 and 81 years (inclusive). The dose range was 70 to 7000 mg in single-dose studies and 200 to 3000 mg BID in multiple-dose studies for up to 10 days. Patients with AD were treated with 250 mg BID to 2000 mg BID.

O=c1cc(-c2ccc(O)cc2)oc2cc(O)cc(O)c12 [apigenin, 4′,5,7-trihydroxyflavone]
level of apigenin resulting in elevated glutathione reductase and superoxide desmutases [1]: 3.5-4.5 mgs per day | amyloid beta half life (transgenic AD mice; Transgenic AD mice, not observed with deleted Aquaporin 4 gene): significantly reduced | efficacy dose observed in animal models (transgenic AD mice; approximately): 20 to 40 mg/kg/day | increase of clearance of amyloid beta in the brain (transgenic AD mice; mouse, in vivo): 30-40% | aquaporin channels on perivascular astrocytes (transgenic AD mice; transgenic AD mice): increased the expression and localization | cognition (transgenic AD mice; transgenic AD mice): reversed the loss in cognition to normal levels | reduction of amyloid beta 42 burden (transgenic AD mice; transgenic mouse model): 20-30% | adverse events [2]: No signs of adverse events | adverse events (animals): No adverse events | water solubility [3]: reduced water solubility

O[C@H]1[C@H](O)[C@@H](O)[C@H](O)[C@@H](O)[C@@H]1O [scyllo-inositol]
concentration sufficient to prevent formation of oligomers and break down amyloid beta aggregates and fibrils (amyloid beta): 2-5 ugms/ml | blood brain barrier passage [4]: crosses the blood brain barrier | plasma levels versus dose [4]: dose proportional increase | average scyllo-inositol levels in CSF [5]: 15 µg/mL | efficacy on cognition and function by MMSE subgroup ([6]; mild AD patients with MMSE score of 22-26): more pronounced | NTB score ([6]; mild AD patients, 250 mg BID): very strong signal in improvement | parameters measured in the NTB that showed improvement ([6]; mild AD patients, 250 mg BID): 7 of the 9 | changes in cognition ([6]; mild to moderate patient population, 250 mg BID): not statistically significant | subgroup analysis versus placebo ([7]; MMSE 23-26, 250 mg BID): did not achieve statistical significance | primary endpoints NTB and/or ADCS-ADL versus placebo ([7]; full analysis set, 250 mg BID, 78 weeks, MMSE 16-26): no statistical significance | efficacy on NTB, CDR-SoB, ADCS-ADL and ADAS-Cog ([7]; mild and moderate AD patients, overall population): failed to show efficacy | primary endpoints NTB and ADCS-ADL, preventing decline versus placebo ([7]; per-protocol sets, 250 mg BID, 78 weeks): no statistically significant different | amyloid beta binding to neurons and neurotoxicity (neurons): prevent amyloid beta binding to neurons and reduced neurotoxicity | dose safe and no pathologies (dogs; dog, in vivo, 12 months): 300 mg/kg/day | adverse events (dogs; dogs, 2000 mg/kg/day for 12 months, skin inflammation, gingivitis and pneumonia): some mild adverse events | long term potentiation (hippocampal slices): restores long term potentiation | dose safe with no observed pathologies (rats): up to 2500 mg/kg/day | reduction of amyloid beta 42 in the brain ([8]; 10 mg/kg and 30 mg/kg): 20-30% | reduction of number of plaques ([8]; 10 mg/kg and 30 mg/kg): 25-50% | cognition in Morris Water maze test ([8]; oral treatment): comparable to normal animals | dose considered safe for long-term use [9]: 250 mg BID
